Key:
[1] = test system: 46 cell lines representing 6 different malignancies; assay: Growth inhibition in a panel of cancer cell lines; format: cell-based; conditions: 6 malignancies, read-out: median IC50
Experimental: (§1) The live-cell assay for GFP reactivation in YB5 cells was done as previously described. Cells were treated with a single dose of drug 24 h after seeding at low density, and GFP fluorescence measured in a Millipore Guava flow cytometer (EMD, Millipore) instrument, or by imaging in a Cytation instrument (Agilent). Cancer cell lines (listed in Additional file 1: Fig. S1A) were obtained from ATCC or the Temple/Fox Chase Cellular Repository and cultured in the recommended medium. To measure growth inhibition, cells were seeded in 96-well plates at 40% confluency. Fresh medium was changed the next day and drugs were added directly. Drug-free fresh medium was changed on the fourth day. The cells were collected on day 5 by trypsin, suspended in medium, mixed with trypan blue (Thermo Fisher Scientific) (1:1 ratio), and counted using a LUNA II automated cell counter. Each sample was counted at least three times, and average numbers used for the analysis. Each treatment condition was performed in biological triplicates.

451LU = assay: Growth inhibition (cell counting, day 5); format: cell-based; conditions: Melanoma
Experimental: as §1

A2058 = assay: Growth inhibition (cell counting, day 5); format: cell-based; conditions: Homo sapiens, Melanoma
Experimental: as §1

A375 = assay: Growth inhibition (cell counting, day 5); format: cell-based; conditions: Homo sapiens, A-375; Melanoma
Experimental: as §1

BT474 = assay: Growth inhibition (cell counting, day 5); format: cell-based; conditions: Homo sapiens, BT-474; Breast
Experimental: as §1

BT549 = assay: Growth inhibition (cell counting, day 5); format: cell-based; conditions: Homo sapiens, BT-549; Breast
Experimental: as §1

CT26.CL25 = assay: Growth inhibition (cell counting, day 5); format: cell-based; conditions: Mus musculus; Colon
Experimental: as §1

CaCO2 = assay: Growth inhibition (cell counting, day 5); format: cell-based; conditions: Homo sapiens, Caco-2; Colon
Experimental: as §1

Cama-1 = assay: Growth inhibition (cell counting, day 5); format: cell-based; conditions: Homo sapiens, Breast
Experimental: as §1

DU145 = assay: Growth inhibition (cell counting, day 5); format: cell-based; conditions: Homo sapiens, DU-145; Prostate
Experimental: as §1

HCC2218 = assay: Growth inhibition (cell counting, day 5); format: cell-based; conditions: Homo sapiens, Breast
Experimental: as §1

HCCC1937 = assay: Growth inhibition (cell counting, day 5); format: cell-based; conditions: Breast
Experimental: as §1

HCT116 = assay: Growth inhibition (cell counting, day 5); format: cell-based; conditions: Homo sapiens, HCT-116; Colon
Experimental: as §1

HL-60 = assay: Growth inhibition (cell counting, day 5); format: cell-based; conditions: Homo sapiens, Leukemia
Experimental: as §1

HS936T = assay: Growth inhibition (cell counting, day 5); format: cell-based; conditions: Melanoma
Experimental: as §1

HT29 = assay: Growth inhibition (cell counting, day 5); format: cell-based; conditions: Homo sapiens, HT-29; Colon
Experimental: as §1

HTB126 = assay: Growth inhibition (cell counting, day 5); format: cell-based; conditions: Breast
Experimental: as §1

J-Tag = assay: Growth inhibition (cell counting, day 5); format: cell-based; conditions: Leukemia
Experimental: as §1

Jurkat = assay: Growth inhibition (cell counting, day 5); format: cell-based; conditions: Homo sapiens, Leukemia
Experimental: as §1

K562 = assay: Growth inhibition (cell counting, day 5); format: cell-based; conditions: Homo sapiens, Leukemia
Experimental: as §1

KG-1a = assay: Growth inhibition (cell counting, day 5); format: cell-based; conditions: Homo sapiens, Leukemia
Experimental: as §1

KG-1 = assay: Growth inhibition (cell counting, day 5); format: cell-based; conditions: Homo sapiens, Leukemia
Experimental: as §1

KM12 = assay: Growth inhibition (cell counting, day 5); format: cell-based; conditions: Homo sapiens, Colon
Experimental: as §1

LOVO = assay: Growth inhibition (cell counting, day 5); format: cell-based; conditions: Homo sapiens, Colon
Experimental: as §1

LnCap = assay: Growth inhibition (cell counting, day 5); format: cell-based; conditions: Homo sapiens, Prostate
Experimental: as §1

M14 = assay: Growth inhibition (cell counting, day 5); format: cell-based; conditions: Homo sapiens, Melanoma
Experimental: as §1

MALME-3M = assay: Growth inhibition (cell counting, day 5); format: cell-based; conditions: Homo sapiens, Melanoma
Experimental: as §1

MCF7 = assay: Growth inhibition (cell counting, day 5); format: cell-based; conditions: Homo sapiens, Breast
Experimental: as §1

MOLM-13 = assay: Growth inhibition (cell counting, day 5); format: cell-based; conditions: Homo sapiens, Leukemia
Experimental: as §1

MV4-11 = assay: Growth inhibition (cell counting, day 5); format: cell-based; conditions: Homo sapiens, Leukemia
Experimental: as §1

OCI-AML3 = assay: Growth inhibition (cell counting, day 5); format: cell-based; conditions: Homo sapiens, OCI-AML-3; Leukemia
Experimental: as §1

PC3 = assay: Growth inhibition (cell counting, day 5); format: cell-based; conditions: Homo sapiens, PC-3; Prostate
Experimental: as §1

RKO = assay: Growth inhibition (cell counting, day 5); format: cell-based; conditions: Homo sapiens, Colon
Experimental: as §1

Raji = assay: Growth inhibition (cell counting, day 5); format: cell-based; conditions: Homo sapiens, Leukemia
Experimental: as §1

SKBR3 = assay: Growth inhibition (cell counting, day 5); format: cell-based; conditions: Homo sapiens, SK-BR-3; Breast
Experimental: as §1

SW480 = assay: Growth inhibition (cell counting, day 5); format: cell-based; conditions: Homo sapiens, Colon
Experimental: as §1

SW48 = assay: Growth inhibition (cell counting, day 5); format: cell-based; conditions: Homo sapiens, Colon
Experimental: as §1

THP-1 = assay: Growth inhibition (cell counting, day 5); format: cell-based; conditions: Homo sapiens, Leukemia
Experimental: as §1

UC16 = assay: Growth inhibition (cell counting, day 5); format: cell-based; conditions: Bladder
Experimental: as §1

UC3 = assay: Growth inhibition (cell counting, day 5); format: cell-based; conditions: Bladder
Experimental: as §1

UC6 = assay: Growth inhibition (cell counting, day 5); format: cell-based; conditions: Bladder
Experimental: as §1

VACCC257 = assay: Growth inhibition (cell counting, day 5); format: cell-based; conditions: Melanoma
Experimental: as §1

WM3912 = assay: Growth inhibition (cell counting, day 5); format: cell-based; conditions: Melanoma
Experimental: as §1

WM3918 = assay: Growth inhibition (cell counting, day 5); format: cell-based; conditions: Melanoma
Experimental: as §1

WM88 = assay: Growth inhibition (cell counting, day 5); format: cell-based; conditions: Melanoma
Experimental: as §1

WM983B = assay: Growth inhibition (cell counting, day 5); format: cell-based; conditions: Melanoma
Experimental: as §1

sk-mel28 = assay: Growth inhibition (cell counting, day 5); format: cell-based; conditions: Homo sapiens, SK-MEL-28; Melanoma
Experimental: as §1

[2] = Drug toxicity: body weights and complete blood counts in tumor-bearing mice; format: in vivo; conditions: MV4-11 model, NSG mice, Fig. S4D

## Nc1nc(N[C@H]2C[C@@H]3CC[C@H]2C3)sc1C(=O)c1ccccc1[N+](=O)[O-] (relative stereo) [MC180295]
[1]
  IC50: 0.171 µM
451LU
  IC50: 0.11 µM
A2058
  IC50: 0.198 µM
A375
  IC50: 0.189 µM
BT474
  IC50: 0.08 µM
BT549
  IC50: 0.29 µM
CT26.CL25
  IC50: 0.166 µM
CaCO2
  IC50: 0.107 µM
Cama-1
  IC50: 0.624 µM
DU145
  IC50: 0.211 µM
HCC2218
  IC50: 0.0706 µM
HCCC1937
  IC50: 0.124 µM
HCT116
  IC50: 0.0922 µM
HL-60
  IC50: 0.121 µM
HS936T
  IC50: 0.391 µM
HT29
  IC50: 0.0756 µM
HTB126
  IC50: 0.092 µM
J-Tag
  IC50: 0.112 µM
Jurkat
  IC50: 0.141 µM
K562
  IC50: 0.502 µM
KG-1a
  IC50: 0.0823 µM
KG-1
  IC50: 0.148 µM
KM12
  IC50: 0.102 µM
LOVO
  IC50: 0.199 µM
LnCap
  IC50: 0.109 µM
M14
  IC50: 0.305 µM
MALME-3M
  IC50: 0.351 µM
MCF7
  IC50: 0.177 µM
MOLM-13
  IC50: 0.044 µM
MV4-11
  IC50: 0.028 µM
OCI-AML3
  IC50: 0.0953 µM
PC3
  IC50: 0.213 µM
RKO
  IC50: 0.0768 µM
Raji
  IC50: 0.137 µM
SKBR3
  IC50: 0.122 µM
SW480
  IC50: 0.154 µM
SW48
  IC50: 0.0981 µM
THP-1
  IC50: 0.043 µM
UC16
  IC50: 0.077 µM
UC3
  IC50: 0.101 µM
UC6
  IC50: 0.143 µM
VACCC257
  IC50: 0.343 µM
WM3912
  IC50: 0.119 µM
WM3918
  IC50: 0.15 µM
WM88
  IC50: 0.103 µM
WM983B
  IC50: 0.25 µM
sk-mel28
  IC50: 0.422 µM
[2]
  body weights: did not affect NSG mouse body weights

Reference: publication PMC10765884, “MC180295 is a highly potent and selective CDK9 inhibitor with preclinical in vitro and in vivo efficacy in cancer” (Clinical Epigenetics, 2024)
